Values of other authors in patent publication US20010036664A1, “L-leucyl-L-leucine methyl ester treatment of donor lypmhocyte infusions in bone marrow transplant patients” (priority 2000, published 2001).

What was measured:
GVHD-inducing T cells = conditions: stem cell toxicity occurs at this concentration
GVHD = conditions: ex vivo treatment of bone marrow grafts; multiple murine models

COC(=O)[C@H](CC(C)C)NC(=O)[C@@H](N)CC(C)C [LLME, L-leucyl-L-leucine methyl ester]
concentrations necessary to purge GVHD-inducing T cells (GVHD-inducing T cells): 500 µM | prevention of GVHD (GVHD): completely prevent GVHD
